Legend:
[1] = test system: cancer cells in breast cancer tissue samples; experiment: Peptide competition assay on cancer tissue samples; format: binding, human; conditions: peptide 100 ng/ml; PC90 10^9 pfu
Experimental: The cancer targeting activity of PC90 was confirmed by a peptide competition assay, in which the cancer tissue samples were incubated with (1) the synthetic peptide (100 ng/ml) SMDPFLFQLLQL (SEQ ID NO:5) (SP90) and PC90 (10^9 pfu) or (2) the control peptide (100 ng/ml) RLLDTNRPLLPY (SEQ ID NO:6; see Lee et al., cancer Res. 64:8002-8008, 2004) and PC90. SP90 and the control peptide were synthesized and purified by reverse-phase high-performance liquid chromatography. The resultant peptides, having a purity of greater than 95%, were conjugated, if necessary, with FITC or biotin at their N-termini.

[2] = test system: breast tumor xenografts; experiment: In vivo peptide competition: co-injection with PC90 in mice bearing breast tumor xenografts; conditions: 100 μg peptide co-injected with PC90
Experimental: SP90 was co-administered to test its ability of blocking PC90 from binding to the tumor tissues. Briefly, 100 μg SP90 or the control peptides described above were co-injected with PC90 to mice bearing breast tumor xenografts. The normal organs and tumor tissues were removed and fixed in Bouin's solution (Sigma, Mo., USA). After fixation, the samples were embedded in paraffin blocks, sliced to sections, and the sections were deparaffinized, rehydrated, and subjected to immunostaining using the mouse anti-M13 mAb described in Example 1 above.

[3] = test system: BT483 breast cancer xenografts; experiment: Treatment of breast tumor xenografts: tumor volume; format: in vivo, SCID mice; conditions: doxorubicin 3 mg/kg once a week for three weeks, tail vein; n=6, P<0.005
Experimental: SCID mice (4-6 weeks of age) were injected s.c. in the dorsolateral flank with 1×10^7 BT483 cells to induce breast cancer xenografts. The tumor volumes in these mice were determined by the formula: length×[…]×0.52. The mice bearing xenograft tumors at a size of around 50-100 mm^3 were randomly assigned to four groups, each of which was treated as follows via administration through their tail veins.
Group 1: treated with SP90 conjugated doxorubicin-containing liposomes (SP90-LD) at a doxorubicin dosage of 3 mg/kg, once a week for three weeks,
Group 2: treated with doxorubicin-containing liposomes (LD), at a doxorubicin dosage of 3 mg/kg, once a week for three weeks,
Group 3: treated with free doxorubicin (FD), at a doxorubicin dosage of 3 mg/kg, once a week for three weeks, and
Group 4: treated with saline once a week for three weeks (blank control).
Mouse body weights and tumor sizes were measured twice a week. Tumor volumes were calculated following the formula described above.

[4] = Total white blood cell count in treated tumor-bearing mice; format: in vivo, SCID mice; conditions: three days after the last treatment (day 17); doxorubicin 3 mg/kg weekly x3
Experimental: The total white blood cell (WBC) numbers in the treated mice were determined three days after the last treatment (i.e., on day 17) as follows. […] The blood was then mixed with a red blood cell lysis buffer containing 2% acetic acid and 1% of Gentian violet (Sigma-Aldrich, Saint Louis, Mo., USA) and incubated at room temperature. The number of the WBCs was countered using a hemacytometer.

[5] = test system: tumor blood vessels; experiment: Tumor blood vessel staining with tomato lectin; format: in vivo, SCID mice; conditions: doxorubicin 3 mg/kg weekly x3; FIG. 3 Panel B
Description: Tumor tissues were removed from the treated mice, fixed with 4% paraformaldehyde and embedded with paraffin. Blood vessels in the tumor tissues were detected by staining with Lycopersicon esculentum (tomato) lectin conjugated to biotin (Vector, CA, USA) and then with streptavidin-conjugated rhodamine (Pierce, Ill., USA).

[6] = Doxorubicin localization in tumor tissues of treated mice; format: in vivo, SCID mice; conditions: 2 mg/kg tail vein
Description: At selected time points, three mice in each group were anaesthetized and sacrificed.

Row | total number of the WBCs [4] | areas of tumor tissue in which doxorubicin was detected (autofluorescence) [6] | Compound | competition against PC90 for binding to the cancer cells in the tissue samples [1] | inhibition of PC90 binding to the tumor tissues [2] | average tumor volume, fold larger than that of the Group 2 mice [3] [fold] | number of tumor vessels / tumor vascular density (lectin staining) [5]
1 | – | – | RLLDTNRPLLPY [control peptide] | not | did not exhibit any inhibitory activity | – | –
2 | 5.6×10^3 /mm^3 | detected only in limited areas | COc1cccc2c1C(=O)c1c(O)c3c(c(O)c1C2=O)C[C@@](O)(C(=O)CO)C[C@@H]3O[C@H]1C[C@H](N)[C@H](O)[C@H](C)O1 [FD, doxorubicin] | – | – | 8.3 | high tumor vascular density
3 | – | – | SMDPFLFQLLQL [SP90] | competed against PC90 for binding to the cancer cells | 97% | – | –
